These results are taken from ChEMBL document CHEMBL4732163 (Eur J Med Chem, 2021).

The target of series [1] is T1, Cyclin-G-associated kinase (Homo sapiens, UniProt O14976).
T1 sequence (O14976 whole entry): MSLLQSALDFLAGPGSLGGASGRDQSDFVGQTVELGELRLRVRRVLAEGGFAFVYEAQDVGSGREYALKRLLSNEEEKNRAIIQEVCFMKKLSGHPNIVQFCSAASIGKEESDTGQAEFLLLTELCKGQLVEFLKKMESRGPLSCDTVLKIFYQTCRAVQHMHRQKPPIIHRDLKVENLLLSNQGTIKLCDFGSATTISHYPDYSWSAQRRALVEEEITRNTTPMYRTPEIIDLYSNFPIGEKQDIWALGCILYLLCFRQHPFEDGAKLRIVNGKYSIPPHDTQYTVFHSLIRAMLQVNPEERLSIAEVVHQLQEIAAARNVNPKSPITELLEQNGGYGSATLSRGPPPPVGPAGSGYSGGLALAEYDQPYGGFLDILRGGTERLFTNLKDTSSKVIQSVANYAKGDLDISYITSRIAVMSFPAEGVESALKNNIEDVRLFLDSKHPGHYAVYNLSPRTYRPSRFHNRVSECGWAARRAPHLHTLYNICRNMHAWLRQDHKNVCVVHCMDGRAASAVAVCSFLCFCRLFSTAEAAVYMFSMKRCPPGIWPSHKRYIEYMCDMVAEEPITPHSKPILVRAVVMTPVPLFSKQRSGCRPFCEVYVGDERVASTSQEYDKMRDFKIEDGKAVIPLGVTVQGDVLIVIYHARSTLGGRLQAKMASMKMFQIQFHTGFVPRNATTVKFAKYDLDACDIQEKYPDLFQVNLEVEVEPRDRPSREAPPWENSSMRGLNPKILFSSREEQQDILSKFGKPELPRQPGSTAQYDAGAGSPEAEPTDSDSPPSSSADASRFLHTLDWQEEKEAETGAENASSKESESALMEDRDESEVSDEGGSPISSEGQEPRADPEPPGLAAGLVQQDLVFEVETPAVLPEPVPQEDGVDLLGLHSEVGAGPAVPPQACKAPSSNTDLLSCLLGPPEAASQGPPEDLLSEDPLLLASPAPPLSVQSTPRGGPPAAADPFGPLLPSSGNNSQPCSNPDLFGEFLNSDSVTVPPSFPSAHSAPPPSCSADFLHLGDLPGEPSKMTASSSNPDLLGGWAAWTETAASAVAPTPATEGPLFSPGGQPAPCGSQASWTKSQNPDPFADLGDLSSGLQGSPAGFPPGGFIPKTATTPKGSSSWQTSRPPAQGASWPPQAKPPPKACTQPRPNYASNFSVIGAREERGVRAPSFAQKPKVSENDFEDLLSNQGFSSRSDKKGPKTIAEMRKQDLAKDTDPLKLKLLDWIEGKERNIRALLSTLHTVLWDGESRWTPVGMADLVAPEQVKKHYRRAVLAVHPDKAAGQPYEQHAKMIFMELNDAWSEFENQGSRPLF
The series is described as follows: Inhibition of tracer 222 binding to GAK (unknown origin) incubated for 1 hr by Lanthascreen TR-FRET assay. (Time-resolved FRET reads energy transfer from a long-lived donor to a nearby acceptor.)

A further series has as its system dengue virus type 2. The experiment in a line: Antiviral activity against DENV-2 New Guinea C infected in human Huh-7 cells preincubated for 1 hr followed by viral infection and measured after 48 hrs by Renilla luciferase reporter gene assay. (In general: Reporter assays use an easily measured gene product as a stand-in for the process of interest.)
A short description of series [2]: Cytotoxicity against DENV-2 New Guinea C infected human Huh-7 cells assessed as reduction in cell viability preincubated for 1 hr followed by viral infection and measured after 48 hrs by Alamar blue assay. It is filed as cell-based. Particulars: Huh-7 cells infected with DENV-2 New Guinea C, time 49 hrs. For orientation: The colour change of resazurin is a common sign of viable cells or microbes.

Series [3] concerns the target Cyclin-dependent kinase 7 (Homo sapiens) (UniProt P50613). The series is described as follows: Inhibition of wild-type human full length CDK7 (M1 to L344 residues) expressed in mammalian expression system assessed as residual activity at 10 uM by Kinomescan method relative to control.
Series [4] deals with Receptor-type tyrosine-protein kinase FLT3 (Homo sapiens) (UniProt P36888). The series is described as follows: Inhibition of wild-type human partial length FLT3 (V592 to Y969 residues) expressed in bacterial expression system assessed as residual activity at 10 uM by Kinomescan method relative to control.
Receptor-type tyrosine-protein kinase FLT3 (Homo sapiens), sequence (P36888 whole entry, the tested form may be a part): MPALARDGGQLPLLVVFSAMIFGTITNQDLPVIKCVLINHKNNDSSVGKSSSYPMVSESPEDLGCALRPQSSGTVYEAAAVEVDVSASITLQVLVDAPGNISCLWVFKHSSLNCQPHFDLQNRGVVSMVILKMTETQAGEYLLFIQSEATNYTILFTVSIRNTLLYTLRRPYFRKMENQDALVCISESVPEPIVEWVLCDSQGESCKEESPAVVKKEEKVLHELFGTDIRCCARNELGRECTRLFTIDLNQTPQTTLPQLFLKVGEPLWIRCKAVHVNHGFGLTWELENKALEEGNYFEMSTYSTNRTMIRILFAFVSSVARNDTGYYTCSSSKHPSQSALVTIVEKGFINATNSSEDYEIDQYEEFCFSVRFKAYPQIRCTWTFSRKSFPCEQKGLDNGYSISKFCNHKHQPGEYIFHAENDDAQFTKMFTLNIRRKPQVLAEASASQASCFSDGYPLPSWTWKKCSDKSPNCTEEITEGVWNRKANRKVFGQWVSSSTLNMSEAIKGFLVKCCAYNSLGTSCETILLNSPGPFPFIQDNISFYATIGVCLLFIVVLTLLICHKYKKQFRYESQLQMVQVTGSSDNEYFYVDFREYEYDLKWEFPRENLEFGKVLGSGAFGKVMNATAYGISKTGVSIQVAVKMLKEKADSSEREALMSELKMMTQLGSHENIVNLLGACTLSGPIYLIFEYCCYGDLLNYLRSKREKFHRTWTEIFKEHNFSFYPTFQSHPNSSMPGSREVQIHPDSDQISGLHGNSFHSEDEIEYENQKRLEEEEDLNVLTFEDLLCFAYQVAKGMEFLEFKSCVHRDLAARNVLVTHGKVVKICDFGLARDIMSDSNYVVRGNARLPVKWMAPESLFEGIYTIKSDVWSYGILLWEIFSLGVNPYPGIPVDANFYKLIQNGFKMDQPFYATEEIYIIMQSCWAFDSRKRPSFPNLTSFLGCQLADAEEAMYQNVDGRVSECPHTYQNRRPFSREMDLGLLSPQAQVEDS
Series [5] has as its target Mast/stem cell growth factor receptor Kit (Homo sapiens) (UniProt P10721). The series is described as follows: Inhibition of wild-type human partial length KIT (I571 to D952 residues) expressed in bacterial expression system assessed as residual activity at 10 uM by Kinomescan method relative to control.
For series [6], the target named is MAP kinase-interacting serine/threonine-protein kinase 2 (Homo sapiens) (UniProt Q9HBH9). The experiment in a line: Inhibition of wild-type human partial length MKNK2 (G63 to S388 residues) expressed in mammalian expression system assessed as residual activity at 10 uM by Kinomescan method relative to control.
MAP kinase-interacting serine/threonine-protein kinase 2 (Homo sapiens), sequence (Q9HBH9 whole entry, looked up, the tested form may be a part): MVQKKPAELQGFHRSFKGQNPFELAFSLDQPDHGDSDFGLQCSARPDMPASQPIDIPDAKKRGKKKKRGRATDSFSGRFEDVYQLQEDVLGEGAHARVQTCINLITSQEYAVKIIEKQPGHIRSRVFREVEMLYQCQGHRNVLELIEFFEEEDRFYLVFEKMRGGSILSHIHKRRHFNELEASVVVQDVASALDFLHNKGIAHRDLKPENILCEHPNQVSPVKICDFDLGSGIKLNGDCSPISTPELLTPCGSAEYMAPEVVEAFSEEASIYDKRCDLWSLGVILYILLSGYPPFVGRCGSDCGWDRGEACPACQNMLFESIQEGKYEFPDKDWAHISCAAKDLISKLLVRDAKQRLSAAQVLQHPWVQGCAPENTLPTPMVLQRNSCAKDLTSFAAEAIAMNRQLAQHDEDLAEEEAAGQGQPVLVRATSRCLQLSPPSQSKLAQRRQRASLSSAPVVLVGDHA
Series [7] concerns the target Platelet-derived growth factor receptor alpha (Homo sapiens) (UniProt P16234). The series is described as follows: Inhibition of wild-type human partial length PDGFRA (V575 to D1002 residues) expressed in mammalian expression system assessed as residual activity at 10 uM by Kinomescan method relative to control.
In series [8] the target is Platelet-derived growth factor receptor beta (Homo sapiens) (UniProt P09619). The series is described as follows: Inhibition of wild-type human partial length PDGFRB (V582 to Y1009 residues) expressed in bacterial expression system assessed as residual activity at 10 uM by Kinomescan method relative to control.
Platelet-derived growth factor receptor beta (Homo sapiens), sequence (P09619 whole entry, the tested form may be a part): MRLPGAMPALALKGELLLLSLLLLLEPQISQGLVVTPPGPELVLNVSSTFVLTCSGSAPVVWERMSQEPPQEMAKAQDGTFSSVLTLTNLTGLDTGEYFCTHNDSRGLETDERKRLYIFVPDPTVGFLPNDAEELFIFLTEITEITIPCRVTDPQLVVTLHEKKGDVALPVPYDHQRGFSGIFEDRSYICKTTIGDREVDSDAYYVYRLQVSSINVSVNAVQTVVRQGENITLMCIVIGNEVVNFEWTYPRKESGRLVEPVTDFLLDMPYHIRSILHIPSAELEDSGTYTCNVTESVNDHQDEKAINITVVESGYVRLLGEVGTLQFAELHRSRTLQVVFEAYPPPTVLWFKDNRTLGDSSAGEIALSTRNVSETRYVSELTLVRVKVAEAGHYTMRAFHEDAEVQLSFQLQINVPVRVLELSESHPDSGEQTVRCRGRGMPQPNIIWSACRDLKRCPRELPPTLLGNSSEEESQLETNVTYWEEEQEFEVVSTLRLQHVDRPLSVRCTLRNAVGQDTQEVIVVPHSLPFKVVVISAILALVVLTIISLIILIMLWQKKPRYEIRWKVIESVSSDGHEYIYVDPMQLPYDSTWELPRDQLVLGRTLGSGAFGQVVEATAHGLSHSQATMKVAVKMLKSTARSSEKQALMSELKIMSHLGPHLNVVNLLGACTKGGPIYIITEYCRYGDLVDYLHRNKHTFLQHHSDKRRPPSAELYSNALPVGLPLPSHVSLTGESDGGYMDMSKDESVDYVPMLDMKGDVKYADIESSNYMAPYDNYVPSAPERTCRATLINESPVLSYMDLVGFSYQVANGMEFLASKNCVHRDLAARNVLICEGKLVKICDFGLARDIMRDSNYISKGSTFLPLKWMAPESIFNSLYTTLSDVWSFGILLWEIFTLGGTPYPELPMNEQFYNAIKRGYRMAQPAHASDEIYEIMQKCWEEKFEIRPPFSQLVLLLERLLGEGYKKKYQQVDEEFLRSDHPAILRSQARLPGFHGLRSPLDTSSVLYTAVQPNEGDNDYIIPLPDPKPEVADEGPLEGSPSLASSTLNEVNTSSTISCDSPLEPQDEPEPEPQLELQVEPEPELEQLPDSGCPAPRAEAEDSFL
For series [9], the target named is High affinity nerve growth factor receptor (Homo sapiens) (UniProt P04629). The experiment in a line: Inhibition of wild-type human partial length TRKA (G475 to G790 residues) expressed in mammalian expression system assessed as residual activity at 10 uM by Kinomescan method relative to control.
High affinity nerve growth factor receptor (Homo sapiens), sequence (P04629 33-796 limits assumed): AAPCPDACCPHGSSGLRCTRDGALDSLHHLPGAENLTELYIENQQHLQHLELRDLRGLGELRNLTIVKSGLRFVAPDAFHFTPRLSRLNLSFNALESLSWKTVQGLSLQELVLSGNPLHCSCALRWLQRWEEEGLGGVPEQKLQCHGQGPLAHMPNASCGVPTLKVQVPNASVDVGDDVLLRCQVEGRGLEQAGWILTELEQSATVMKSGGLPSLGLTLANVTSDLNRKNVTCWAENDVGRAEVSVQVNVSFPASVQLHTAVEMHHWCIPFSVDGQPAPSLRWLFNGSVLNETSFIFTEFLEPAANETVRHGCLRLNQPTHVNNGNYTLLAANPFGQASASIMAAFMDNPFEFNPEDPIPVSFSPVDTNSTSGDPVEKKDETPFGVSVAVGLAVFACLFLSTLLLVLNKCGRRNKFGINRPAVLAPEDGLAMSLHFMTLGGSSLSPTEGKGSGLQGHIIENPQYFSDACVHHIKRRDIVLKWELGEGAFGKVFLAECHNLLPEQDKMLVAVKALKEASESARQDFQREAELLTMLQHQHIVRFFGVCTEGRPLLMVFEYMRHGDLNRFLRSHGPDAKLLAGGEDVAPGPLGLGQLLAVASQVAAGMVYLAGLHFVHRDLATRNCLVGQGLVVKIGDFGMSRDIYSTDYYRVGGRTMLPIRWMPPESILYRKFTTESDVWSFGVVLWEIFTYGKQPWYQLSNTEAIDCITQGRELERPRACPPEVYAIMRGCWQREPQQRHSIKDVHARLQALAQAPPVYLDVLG

Where only a bound is given, the exact number is not on record here.

Cyclin-dependent kinase 7 (Homo sapiens), sequence (P50613 whole entry, the tested form may be a part): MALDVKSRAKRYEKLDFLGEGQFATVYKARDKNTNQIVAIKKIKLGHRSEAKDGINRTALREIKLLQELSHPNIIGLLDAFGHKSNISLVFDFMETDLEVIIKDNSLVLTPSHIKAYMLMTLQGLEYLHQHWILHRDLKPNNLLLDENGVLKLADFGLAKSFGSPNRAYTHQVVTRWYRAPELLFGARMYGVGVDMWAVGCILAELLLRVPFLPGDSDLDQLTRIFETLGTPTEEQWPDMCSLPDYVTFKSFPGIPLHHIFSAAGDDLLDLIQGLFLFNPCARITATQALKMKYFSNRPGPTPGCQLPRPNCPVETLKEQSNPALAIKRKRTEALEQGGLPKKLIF
Mast/stem cell growth factor receptor Kit (Homo sapiens), sequence (P10721 whole entry, the tested form may be a part): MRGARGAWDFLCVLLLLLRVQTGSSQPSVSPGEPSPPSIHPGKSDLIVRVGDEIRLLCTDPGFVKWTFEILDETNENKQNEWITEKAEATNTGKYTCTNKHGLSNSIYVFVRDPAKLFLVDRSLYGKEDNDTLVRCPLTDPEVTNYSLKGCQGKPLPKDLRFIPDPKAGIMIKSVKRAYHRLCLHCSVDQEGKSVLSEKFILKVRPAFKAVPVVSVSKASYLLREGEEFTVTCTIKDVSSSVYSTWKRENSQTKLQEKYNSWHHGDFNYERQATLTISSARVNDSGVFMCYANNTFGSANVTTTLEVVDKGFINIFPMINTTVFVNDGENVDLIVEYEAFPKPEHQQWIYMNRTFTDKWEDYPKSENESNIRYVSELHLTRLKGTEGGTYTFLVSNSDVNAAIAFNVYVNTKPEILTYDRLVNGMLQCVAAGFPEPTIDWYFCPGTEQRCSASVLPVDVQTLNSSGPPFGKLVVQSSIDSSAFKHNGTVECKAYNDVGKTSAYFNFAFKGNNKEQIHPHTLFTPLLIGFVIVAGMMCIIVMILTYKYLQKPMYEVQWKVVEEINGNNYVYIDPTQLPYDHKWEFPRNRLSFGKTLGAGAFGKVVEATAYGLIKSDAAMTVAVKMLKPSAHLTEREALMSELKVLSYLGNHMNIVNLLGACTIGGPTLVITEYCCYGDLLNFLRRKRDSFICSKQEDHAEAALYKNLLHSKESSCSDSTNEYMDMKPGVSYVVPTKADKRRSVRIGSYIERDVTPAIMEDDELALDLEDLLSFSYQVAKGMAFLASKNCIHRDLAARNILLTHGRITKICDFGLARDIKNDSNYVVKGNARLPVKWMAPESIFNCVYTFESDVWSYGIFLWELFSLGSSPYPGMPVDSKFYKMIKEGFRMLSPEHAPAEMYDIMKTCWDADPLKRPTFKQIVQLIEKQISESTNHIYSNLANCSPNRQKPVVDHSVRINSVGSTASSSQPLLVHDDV

`COc1cc(-c2cnc3c(N4CCCC(CNC(=O)C5CC5)C4)snc3c2)ccc1N` (stereo not drawn) had a concentration for half-maximal inhibition (IC50) in series [1] of 0.014 µM. A half-maximal response in the series with dengue virus type 2 (EC50) required 4 µM. In [2], the CC50 at 48 h was over 20 µM.

On to `COc1cc(-c2cnc3c(N4CCC[C@H](CNC(=O)C5CC5)C4)snc3c2)ccc1N`, for which the IC50 in series [1] turned out to be 0.013 µM. The same molecule showed a concentration giving a half-maximal response (EC50) in the series with dengue virus type 2 of 7.5 µM. Further, the CC50 at 48 h in series [2] is over 20 µM. The Activity in series [3], in [4], in [5], in series [6], in [7] and in series [8] was under 10% throughout. Besides, the Activity in series [9] is under 10%.

For the molecule `COc1cc(-c2cnc3c(N4CCCC(CNC(=O)c5ccccc5)C4)snc3c2)ccc1N` (stereo not drawn), the midpoint of the response in the series on dengue virus type 2, the EC50, lay at 3.9 µM. In addition, the CC50 at 48 h in series [2] was over 20 µM.

As to `COc1cc(-c2cnc3c(-c4cccc(NC(=O)C5CC5)c4)snc3c2)ccc1N`, in the series on dengue virus type 2, the EC50 came out at 3.6 µM. In addition, the 50% cytotoxic concentration (CC50) at 48 h in series [2] is 15 µM.

Turning to `CCC(=O)Nc1cccc(-c2snc3cc(-c4ccc(N)c(OC)c4)cnc23)c1`, in the series on dengue virus type 2, the EC50 is 1.9 µM. Also, the CC50 at 48 h in series [2] stood at 9.9 µM.

Molecule `CCC(=O)Nc1ccc(-c2snc3cc(-c4ccc(N)c(OC)c4)cnc23)cc1` showed an IC50 in series [1] of over 1.1 µM.

In series [1], `COc1cc(-c2cnc3c(N4CCOCC4)snc3c2)ccc1N` yielded an IC50 of 0.051 µM.

For `COc1cc(-c2cnc3c(-c4cccc(NC(=O)N5CCCC5)c4)snc3c2)ccc1N`, in the series on dengue virus type 2, the midpoint of the response, the EC50, lay at 6 µM. In addition, the CC50 at 48 h in series [2] was over 20 µM.

Molecule `COc1cc(-c2cnc3c(-c4cccc(NC(=O)C5CCCC5)c4)snc3c2)ccc1N` registered a concentration for a half-maximal effect (EC50) in the series with dengue virus type 2 of 1.8 µM. The CC50 at 48 h in [2] is 13 µM.

As for `C#Cc1cccc(Nc2ncnc3cc(OCCOC)c(OCCOC)cc23)c1` [ERLOTINIB], the EC50 in the series with dengue virus type 2 came to 12 µM. Further, the half-maximal cytotoxic concentration (CC50) at 48 h in [2] is over 20 µM.

For the molecule `COc1cc(-c2cnc3c(N4CCCC(CNC(=O)N5CCCC5)C4)snc3c2)ccc1N` (stereo not drawn), the EC50 with dengue virus type 2 is 4.1 µM. For the same molecule, the CC50 at 48 h in series [2] was over 20 µM.

`COc1cc(-c2cnc3c(-c4cccc(NC(=O)C(C)C)c4)snc3c2)ccc1N` showed a concentration for a half-maximal effect (EC50) in the series on dengue virus type 2 of 3.8 µM. For the same molecule, the CC50 at 48 h in [2] turned out to be 14 µM.

As for `COc1cc(-c2cnc3c(-c4cccc(NC(=O)N5CCOCC5)c4)snc3c2)ccc1N`, the concentration for a half-maximal effect (EC50) in the series with dengue virus type 2 was 7.9 µM. Moreover, the half-maximal cytotoxic concentration (CC50) at 48 h in [2] was over 20 µM.

`COc1cc(-c2cnc3c(N4CCCC(CNC(=O)C5CCCC5)C4)snc3c2)ccc1N` (stereo not drawn) had an EC50 with dengue virus type 2 of 2.6 µM. Besides, the half-maximal cytotoxic concentration (CC50) at 48 h in [2] was over 20 µM.

`COc1cc(-c2cnc3c(N4C[C@@H](C)O[C@@H](C)C4)snc3c2)ccc1N` yielded a concentration giving a half-maximal response (EC50) in the series with dengue virus type 2 of 0.96 µM. In series [2], the half-maximal cytotoxic concentration (CC50) at 48 h was over 20 µM.

Regarding `COc1cc(-c2cnc3c(N4CCC[C@@H](CNC(=O)C5CC5)C4)snc3c2)ccc1N`, the concentration for half-maximal inhibition (IC50) in [1] was determined as 0.36 µM.

Usually IC50 stands for the concentration at which inhibition is half-maximal. High values mean lower potency, low ones higher potency. By EC50 is commonly meant the concentration that produces a half-maximal response. Lower therefore signals greater potency. As usually defined, the CC50 is the concentration at which the toxic effect on the cells reaches its halfway point.
